The test system of this data set is non-small cell lung cancer (NSCLC) patients. As for the experimental part:
Potential factors linked to survival such as age, gender, performance status, smoking history, tumor histology, number of prior chemotherapy regimen, and presence of distant metastasis were also reviewed for each patient. Pretreatment interstitial lung disease was diagnosed using a high resolution computed tomography scan of the chest by diagnostic radiologists blinded to any clinical information.
The tumor response was assessed as complete response (CR), partial response (PR), no change (NC), or progressive disease (PD) according to the World Health Organization Criteria.
The cut-off level of KL-6 was set at 500 U/ml based on the levels of healthy individuals as reported previously.
Genomic DNAs were extracted from frozen or paraffin embedded specimens and the mutational status of the EGFR tyrosine kinase domain (through exons 18 to 21) was examined by the direct sequence method as described previously. In brief, the PCR amplification for extracted DNAs was done using HotStarTaq DNA polymerase (Qiagen Inc., Valencia, Calif.) with the specific primers and PCR conditions. PCR products were incubated using ExoSAP-IT (Amersham Biosciences Corp., Piscataway, N.J.) and then it was sequenced directly using the Applied Biosystems PRISM dye terminator cycle sequencing method (Perkin-Elmer Corp., Foster City, Calif.) with ABI PRISM 3100 Genetic Analyzer (Applied Biosystems, Foster City, Calif.).
The associations between various clinical factors were evaluated using either the χ^2 test or the Fisher's exact test. […] The progression-free and overall survival times were both calculated using the Kaplan-Meier method; different groups were compared using the log-rank test. Associations of various factors with survival were evaluated using the backward stepwise Cox regression analysis. Differences were considered to be statistically significant if the p value was less than 0.05.

Setting [1] is: patients with elevated KL-6 (≧500 U/ml).
[2] abbreviates: patients with normal range of KL-6.

Like-named read-outs stand apart in the source and are kept apart here.

Consider `COc1cc2ncnc(Nc3ccc(F)c(Cl)c3)c2cc1OCCCN1CCOCC1` [gefitinib], for which, under “all 41 NSCLC patients”, the “complete response (CR), number of patients” value is on record as “One”; the “early discontinuance of gefitinib (less than 2 weeks) because of rapid tumor progression” value was 3 (7%) patients; the “no change (NC), number of patients” value was 20 patients; the “partial response (PR), number of patients” value is “ten”. Moreover, the “progressive disease (PD), number of patients” value (all 41 NSCLC patients) was 10 patients. For the same molecule, under “all 41 NSCLC patients, gefitinib 250 mg daily oral, WHO criteria”, the “overall objective response rate” value turned out to be 26.8%. Moreover, where the note is “all 41 patients”, the 1-year survival rate came out at 61.0%, the 2-year survival rate was 29.8%, the “median overall survival time” value is listed as 13.9 months and the “median progression-free survival time” value came out at 4.7 months. The “severe interstitial lung disease or treatment-related death due to gefitinib treatment” value (all 41 patients, during the study period) is recorded as “neither severe interstitial lung disease nor treatment-related death occurred”. In addition, the overall survival (patients with an EGFR mutation) came to 17.8 months. For the same molecule, under setting [1], the “median overall survival time” value is 8.5 months and the “median progression-free survival time” value stood at 2.1 months. The response to gefitinib (patients with elevated serum KL-6 levels (≧500 U/ml)) worked out at 23%. Further, under setting [2], the “median overall survival time” value was determined as 21.1 months and the “median progression-free survival time” value stood at 5.8 months. The overall survival (patients with wild-type EGFR) was determined as 8.5 months. Where the note is “patients with wild-type EGFR and elevated serum KL-6”, this molecule showed a median survival time of 6.5 months. This molecule also displayed a median survival time (patients with wild-type EGFR and normal range of KL-6) of 13.3 months. Where the note is “patients without elevated serum KL-6 levels”, this molecule registered a response to gefitinib of 32%.

The values above are taken from patent publication US20090263838A1, “Method for determining a lung cancer treatment and method for determining the effectiveness of an agent for treatment of lung cancer” (Sanko Junyaku Co., Ltd., priority 2008, published 2009).
